# Legend:
# [1] = system: RKO p27 or p21 induced (arrested) colon adenocarcinoma cells; assay: Alamar Blue cell viability assay, RKO p27 or p21 induced (arrested); type: cell-based; details: Homo sapiens, RKOp27, Table B2, cells arrested by Ponasterone A, 72 hours, read-out: −log EC50 RKO p27 or p21 induced (arrested) (converted)
# Description: (§1) To determine the cell cycle specific mode of action, subclones of RKO colon adenocarcinoma cells (RKOp21 or RKOp27 as described by Schmidt et al. in Oncogene 19, 2423-2429; 2000) are seeded into 96 well flat bottom plates at a density of 16000 cells per well in a volume of 50 μl per well in DMEM growth medium with 10% FCS containing 10 μM Ponasterone A. 24 hours after seeding the 50 μl each of the compound dilutions in DMEM medium are added into each well of the 96-well plate. Each compound dilution is tested as triplicates. Wells containing untreated control cells are filled with 50 μl DMEM medium containing 1% DMSO. The cells are then incubated with the substances for 72 hours at 37° C. in a humidified atmosphere containing 5% carbon dioxide. To determine the viability of the cells, 10 μl of an Alamar Blue solution (Biosource) are added and the fluorescence is measured at an extinction of 544 nm and an emission of 590 nm. For the calculation of the cell viability the emission value from untreated cells is set as 100% viability and the emission rates of treated cells are set in relation to the values of untreated cells. Viabilities are expressed as % values. The Graphpad Prism program (GraphPad Software, Inc) is used for the calculation of EC50 values out of the obtained dose-response curves. Viability is compared of proliferating cells grown in the absence of the inducer Ponasterone A, versus viability of cells arrested by the expression of ectopic p27Kip1 induced by Ponasterone A.
# (§2) Representative values for anti-proliferation/cytotoxicity [measured as −log EC50 (mol/l)] determined in the aforementioned assays follow from the following tables B1, B2 and B3, in which the numbers of the compounds correspond to the numbers of the examples.
# [2] = system: RKO p27 or p21 uninduced (proliferating) colon adenocarcinoma cells; assay: Alamar Blue cell viability assay, RKO p27 or p21 uninduced (proliferating); type: cell-based; details: Homo sapiens, RKOp27, 72 h, Table B2, anti-proliferative/cytotoxic activity, read-out: −log EC50 RKO p27 or p21 uninduced (proliferating) (converted)
# Description: The anti-proliferative/cytotoxic activity of the compounds described herein can be tested on subclones of RKO human colon adenocarcinoma cells (Schmidt et al., Oncogene 19, 2423-2429; 2000) using the Alamar Blue cell viability assay (described in O'Brien et al. Eur J Biochem 267, 5421-5426, 2000). The compounds are dissolved as 10 mM solutions in DMSO and subsequently diluted in semi-logarithmic steps. DMSO dilutions are further diluted 1:100 into Dulbecco's modified Eagle's medium (DMEM) containing 10% fetal calf serum to a final concentration twice as much as the final concentration in the test. RKO subclones are seeded into 96 well flat bottom plates at a density of 4000 cells per well in a volume of 50 μl per well. 24 hours after seeding the 50 μl each of the compound dilutions in DMEM medium are added into each well of the 96 well plate. Each compound dilution is tested as triplicates. Wells containing untreated control cells are filled with 50 μl DMEM medium containing 1% DMSO. The cells are then incubated with the substances for 72 hours at 37° C. in a humidified atmosphere containing 5% carbon dioxide. To determine the viability of the cells, 10 μl of an Alamar Blue solution (Biosource) are added and the fluorescence is measured at an extinction of 544 nm and an emission of 590 nm. For the calculation of the cell viability the emission value from untreated cells is set as 100% viability and the emission rates of treated cells are set in relation to the values of untreated cells. Viabilities are expressed as % values. The Graphpad Prism program is used for the calculation of EC50 values for anti-proliferative/cytotoxic activity out of the obtained dose-response curves.
# as §1, §2
EC50 [1] [nM],Compound,EC50 [2] [nM]
≥ 3160,"C[C@@]12Cc3c([nH]c4ccc(Cl)cc34)[C@@H](c3cccc(O)c3)N1C(=O)N(CCN1CCCCC1)C2=O (racemic) [Example 101, (3aSR,10RS)-6-Chloro-10-(3-hydroxy-phenyl)-3a-methyl-2-(2-piperidin-1-yl-ethyl)-3a,4,9,10-tetrahydro-2,9,10a-triaza-cyclopenta[b]fluorene-1,3-dione]",≤ 39.8
≥ 3160,"C[C@@]12Cc3c([nH]c4ccc(Cl)cc34)[C@@H](c3cccc(O)c3)N1C(=O)N(CCNC1CCC1)C2=O (racemic) [Example 103, (3aSR,10RS)-6-Chloro-2-(2-cyclobutylamino-ethyl)-10-(3-hydroxy-phenyl)-3a-methyl-3a,4,9,10-tetrahydro-2,9,10a-triaza-cyclopenta[b]fluorene-1,3-dione]",≤ 39.8
≥ 3160,"C[C@@]12Cc3c([nH]c4ccc(Cl)cc34)[C@@H](c3cccc(O)c3)N1C(=O)N(CCN1CCCCCC1)C2=O (racemic) [Example 104, (3aSR,10RS)-2-(2-Azepan-1-yl-ethyl)-6-chloro-10-(3-hydroxy-phenyl)-3a-methyl-3a,4,9,10-tetrahydro-2,9,10a-triaza-cyclopenta[b]fluorene-1,3-dione]",≤ 39.8
≥ 316,"CCN(CC)CCN1C(=O)N2[C@H](c3cccc(O)c3)c3[nH]c4ccc(Cl)cc4c3C[C@@]2(C)C1=O (racemic) [Example 110, (3aSR,10RS)-6-Chloro-2-(2-diethylamino-ethyl)-10-(3-hydroxy-phenyl)-3a-methyl-3a,4,9,10-tetrahydro-2,9,10a-triaza-cyclopenta[b]fluorene-1,3-dione]",≤ 39.8
≥ 316,"CN1CCN(CCN2C(=O)N3[C@H](c4cccc(O)c4)c4[nH]c5ccc(Cl)cc5c4C[C@@]3(C)C2=O)CC1 (racemic) [Example 111, (3aSR,10RS)-6-Chloro-10-(3-hydroxy-phenyl)-3a-methyl-2-[2-(4-methyl-piperazin-1-yl)-ethyl]-3a,4,9,10-tetrahydro-2,9,10a-triaza-cyclopenta[b]fluorene-1,3-dione]",≤ 39.8
≥ 316,"CC(=O)N1CCN(CCN2C(=O)N3[C@H](c4cccc(O)c4)c4[nH]c5ccc(Cl)cc5c4C[C@@]3(C)C2=O)CC1 (racemic) [Example 114, (3aSR,10RS)-2-[2-(4-Acetyl-piperazin-1-yl)-ethyl]-6-chloro-10-(3-hydroxy-phenyl)-3a-methyl-3a,4,9,10-tetrahydro-2,9,10a-triaza-cyclopenta[b]fluorene-1,3-dione]",≤ 39.8
≥ 316,"C=CCNCCN1C(=O)N2[C@H](c3cccc(O)c3)c3[nH]c4ccc(Cl)cc4c3C[C@@]2(C)C1=O (racemic) [Example 115, (3aSR,10RS)-2-(2-Allylamino-ethyl)-6-chloro-10-(3-hydroxy-phenyl)-3a-methyl-3a,4,9,10-tetrahydro-2,9,10a-triaza-cyclopenta[b]fluorene-1,3-dione]",≤ 39.8

# Second part, the molecule before the results:
Compound,EC50 [1] [nM],EC50 [2] [nM]
"CC(C)CNCCN1C(=O)N2[C@H](c3cccc(O)c3)c3[nH]c4ccc(Cl)cc4c3C[C@@]2(C)C1=O (racemic) [Example 99, (3aSR,10RS)-6-Chloro-10-(3-hydroxy-phenyl)-2-(2-isobutylamino-ethyl)-3a-methyl-3a,4,9,10-tetrahydro-2,9,10a-triaza-cyclopenta[b]fluorene-1,3-dione]",≥ 3160,≤ 39.8
"C[C@@]12Cc3c([nH]c4ccc(Cl)cc34)[C@@H](c3cccc(O)c3)N1C(=O)N(CCN1CC=CCC1)C2=O (racemic) [Example 100, (3aSR,10RS)-6-Chloro-2-[2-(3,6-dihydro-2H-pyridin-1-yl)-ethyl]-10-(3-hydroxy-phenyl)-3a-methyl-3a,4,9,10-tetrahydro-2,9,10a-triaza-cyclopenta[b]fluorene-1,3-dione]",≥ 3160,≤ 39.8
"C[C@@]12Cc3c([nH]c4ccc(Cl)cc34)[C@@H](c3cccc(O)c3)N1C(=O)N(CCNC1CC1)C2=O (racemic) [Example 102, (3aSR,10RS)-6-Chloro-2-(2-cyclopropylamino-ethyl)-10-(3-hydroxy-phenyl)-3a-methyl-3a,4,9,10-tetrahydro-2,9,10a-triaza-cyclopenta[b]fluorene-1,3-dione]",≥ 3160,≤ 39.8
"COc1ccc2[nH]c3c(c2c1)C[C@@]1(C)C(=O)N(CCCN2CCCCC2)C(=O)N1[C@@H]3c1cccc(O)c1 (racemic) [Example 105, (3aSR,10RS)-10-(3-Hydroxy-phenyl)-6-methoxy-3a-methyl-2-(3-piperidin-1-yl-propyl)-3a,4,9,10-tetrahydro-2,9,10a-triaza-cyclopenta[b]fluorene-1,3-dione]",≥ 316,≤ 39.8
"COc1ccc2[nH]c3c(c2c1)C[C@@]1(C)C(=O)N(CCCN2CC=CCC2)C(=O)N1[C@@H]3c1cccc(O)c1 (racemic) [Example 106, (3aSR,10RS)-2-[3-(3,6-Dihydro-2H-pyridin-1-yl)-propyl]-10-(3-hydroxy-phenyl)-6-methoxy-3a-methyl-3a,4,9,10-tetrahydro-2,9,10a-triaza-cyclopenta[b]fluorene-1,3-dione]",≥ 316,≤ 39.8
"CCN(CC)CCCN1C(=O)N2[C@H](c3cccc(O)c3)c3[nH]c4ccc(OC)cc4c3C[C@@]2(C)C1=O (racemic) [Example 107, (3aSR,10RS)-2-(3-Diethylamino-propyl)-10-(3-hydroxy-phenyl)-6-methoxy-3a-methyl-3a,4,9,10-tetrahydro-2,9,10a-triaza-cyclopenta[b]fluorene-1,3-dione]",≥ 316,≤ 39.8
"C[C@@]12Cc3c([nH]c4ccc(Cl)cc34)[C@@H](c3cccc(O)c3)N1C(=O)N(CCNCC1CC1)C2=O (racemic) [Example 108, (3aSR,10RS)-6-Chloro-2-[2-(cyclopropylmethyl-amino)-ethyl]-10-(3-hydroxy-phenyl)-3a-methyl-3a,4,9,10-tetrahydro-2,9,10a-triaza-cyclopenta[b]fluorene-1,3-dione]",≥ 316,≤ 39.8
"C[C@@]12Cc3c([nH]c4ccc(Cl)cc34)[C@@H](c3cccc(O)c3)N1C(=O)N(CCN1CC=CC1)C2=O (racemic) [Example 109, (3aSR,10RS)-6-Chloro-2-[2-(2,5-dihydro-pyrrol-1-yl)-ethyl]-10-(3-hydroxy-phenyl)-3a-methyl-3a,4,9,10-tetrahydro-2,9,10a-triaza-cyclopenta[b]fluorene-1,3-dione]",≥ 316,≤ 39.8
"COc1ccc2[nH]c3c(c2c1)C[C@@]1(C)C(=O)N(CCCN2CCC(C)CC2)C(=O)N1[C@@H]3c1cccc(O)c1 (racemic) [Example 112, (3aSR,10RS)-10-(3-Hydroxy-phenyl)-6-methoxy-3a-methyl-2-[3-(4-methyl-piperidin-1-yl)-propyl]-3a,4,9,10-tetrahydro-2,9,10a-triaza-cyclopenta[b]fluorene-1,3-dione]",≥ 316,≤ 39.8
COc1ccc2[nH]c3c(c2c1)C[C@@]1(C)C(=O)N(CCCN2CCCCCC2)C(=O)N1[C@@H]3c1cccc(O)c1 (racemic) [Example 113],≥ 316,≤ 39.8

# Source: US8530493B2, “Indolopyridines as Eg5 kinesin modulators” (4SC AG, priority 2006, dated 2013)
